{
  "source": "patent US6379658B1",
  "about": "“Human sweat malodor counteractant composition and process for using same” (International Flavors & Fragrances Inc., priority 1999, dated 2002)",
  "data": [
    {"test": "Human sweat malodor neutralization (jar method), headspace rated by trained panel using Magnitude Estimation", "conditions": "single fragrance ingredient; % Reduction=100×[1-(malodor intensity/total intensity)]", "protocol": "Malodor neutralization is evaluated by placing a specified amount of malodor into an uncapped, 1 ounce wide-mouth jar. This jar is placed into an 8 ounce wide-mouth jar containing a specified amount of test material or finished fragrance. The quantities of malodor and fragrance are dependent on the specific malodor model used. The 8 ounce jar is capped and allowed to equilibrate. The panelists then rate the headspace for (1) total intensity, (2) malodor intensity and (3) overall like/dislike (hedonics). They are provided with an identified sample of malodor as a reference. Each group of samples presented to the panel contains an unidentified positive control (a fragrance material with no malodor), two unidentified negative controls (malodor with no fragrance) and up to twelve test samples (each fragrance is presented in duplicate or triplicate).\nIt is to be noted that evaluations are carried out by panelists who have been extensively screened for their olfactory acuity and trained in the method of evaluation (Magnitude Estimation). Panelist performance is constantly monitored and reviewed.\nAll samples are coded with random 5-digit numbers. Panelists are instructed to select samples from the test set and evaluate them in a random order.\nThe results of these experiments are expressed in terms of malodor reduction (neutralization), change in overall intensity and improvement in hedonics.\nThe percent malodor reduction is calculated as:\n% Reduction=100×[1-(malodor intensity/total intensity)]\nor shown thusly: [formula]\nwherein wherein RMOL represents malodor reduction; iMO is malodor intensity; and iT represents total intensity.\nThe following protocol has been developed to determine the level of odor neutralization:\n1. A predetermined quantity of the malodor model is measured with a micropipette into an uncapped 1 oz. wide-mouth jar. This jar is subsequently placed into an 8 oz. wide-mouth jar containing a predetermined quantity of the test material. The 8 oz. jar is capped and allowed to equilibrate prior to evaluation;\n2. […] Each judge is also presented with an identified sample of the malodor in order to reinforce the malodor discrimination task;\n3. Each of the judges rate the headspace for (a) total odor intensity, (b) malodor intensity and (c) the overall like/dislike (hedonics) of the sample; and […]", "units": {"% Human Sweat Malodor Coverage": "% reduction"}, "values": [
      {"molecule": "CC(=O)CCc1ccccc1", "note": "[Benzyl acetone, benzyl acetone]", "% Human Sweat Malodor Coverage": 96},
      {"molecule": "CC(=O)c1ccc2ccccc2c1", "note": "[Methyl β-naphthalene ketone, methyl β-naphthyl ketone]", "% Human Sweat Malodor Coverage": 96},
      {"molecule": "COc1ccc2ccccc2c1", "note": "[β-Naphthyl methyl ether, β-naphthyl methyl ether]", "% Human Sweat Malodor Coverage": 92},
      {"molecule": "CC(=O)C(C)=CC1C(C)=CCCC1(C)C", "note": "(centres unmarked) [γ-Methyl ionone, 4-(2,6,6-trimethyl-2-cyclohexen-1-yl)-3-methyl-3-buten-2-one]", "% Human Sweat Malodor Coverage": 93},
      {"molecule": "mixture of hexahydro4,7-methanoinden-5-yl propionate and hexahydro-4,7-methanoinden-6-yl propionate [CYCLAPROP ™]", "% Human Sweat Malodor Coverage": 91}
    ]}
  ]
}
